Laboratory results published in US6525001B1, “Substituted pyrimidine and pyridine herbicides” (Mid-American Commercialization Corporation, priority 1997, dated 2003).

Experiments:
Assay type in all cases: in vivo
[1] = tested on: giant foxtail (Setaria faberii); experiment: Test B pre-/postemergence; set-up: key: 0 is no effect; 10 is complete control
Procedure, shortened: (§1)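 Seeds were planted and sprayed preemergence, while plants at 2 to 18 cm (1- to 4-leaf stage) were sprayed postemergence at the same time, with test chemical in a non-phytotoxic solvent mixture containing surfactant. After twelve to sixteen days in a greenhouse, injury was rated visually against untreated controls on a 0–10 scale.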

[2] = tested on: purple nutsedge (Cyperus rotundus); experiment: Test B pre-/postemergence; set-up: key: 0 is no effect; 10 is complete control
Procedure, shortened: as §1

[3] = tested on: bamyardgrass (Echinochloa crus-galli); experiment: Test B flood test
Procedure, shortened: (§2)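 Plants were grown to the 2-leaf stage before treatment with test chemical, then held in a greenhouse for twelve to sixteen days. Injury was visually rated against untreated controls on a 0–10 scale, where 0 is no effect and 10 is complete control.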

[4] = tested on: duck salad (Heteranthera limosa); experiment: Test B flood test
Procedure, shortened: as §2

rice (Oryza sativa) = experiment: Test B flood test
Procedure, shortened: as §2

[5] = tested on: smallflower flatsedge (Cyperus difformis); experiment: Test B flood test
Procedure, shortened: as §2

[6] = tested on: arrowleaf sida (Sida rhombifolia); experiment: Test C; set-up: key: 0 was no effect; 100 was complete control; conditions: PREEMERGENCE
corn (Zea mays) = experiment: Test C; set-up: key: 0 was no effect; 100 was complete control; conditions: PREEMERGENCE
[7] = tested on: eastern black nightshade (Solanum ptycanthum); experiment: Test C; set-up: key: 0 was no effect; 100 was complete control; conditions: PREEMERGENCE
[8] = tested on: giant foxtail (Setaria faberii); experiment: Test C; set-up: key: 0 was no effect; 100 was complete control; conditions: PREEMERGENCE
[9] = tested on: ivyleaf morningglory (Ipomoea hederacea); experiment: Test C; set-up: key: 0 was no effect; 100 was complete control; conditions: PREEMERGENCE
[10] = tested on: purple nutsedge (Cyperus rotundus); experiment: Test C; set-up: key: 0 was no effect; 100 was complete control; conditions: PREEMERGENCE
[11] = tested on: redroot pigweed (Amaranthus retroflexus); experiment: Test C; set-up: key: 0 was no effect; 100 was complete control; conditions: PREEMERGENCE
soybean (Glycine max) = experiment: Test C; set-up: key: 0 was no effect; 100 was complete control; conditions: PREEMERGENCE
[12] = tested on: surinam grass (Brachiaria decumbens); experiment: Test C; set-up: key: 0 was no effect; 100 was complete control; conditions: PREEMERGENCE
[13] = Rate 62 g/ha, Postemergence (flood test)
[14] = Rate 125 g/ha, Postemergence, flood test
[15] = Rate 250 g/ha, Postemergence (flood test species)

Cc1cnc(-c2ccc(C(F)(F)F)cc2)nc1C(Cl)c1cccc(C(F)(F)F)c1 (racemic) [Compound 21]
Plant response rating, Giant foxtail ([1]; Rate 62 g/ha, Postemergence): 1 | Giant foxtail plant response rating ([1]; Rate 62 g/ha, Preemergence): 5 | Plant response rating, Giant foxtail ([1]; Rate 125 g/ha, Postemergence): 8 | Giant foxtail plant response rating ([1]; Rate 125 g/ha, Preemergence): 8 | Plant response rating, Giant foxtail ([1]; Rate 250 g/ha, Postemergence): 9 | Plant response rating, Giant foxtail ([1]; Rate 250 g/ha, Preemergence): 9 | Plant response rating, Nutsedge ([2]; Rate 62 g/ha, Postemergence): 2 | Nutsedge plant response rating ([2]; Rate 62 g/ha, Preemergence): 0 | Plant response rating, Nutsedge ([2]; Rate 125 g/ha, Postemergence): 2 | Nutsedge plant response rating ([2]; Rate 125 g/ha, Preemergence): 0 | Plant response rating, Nutsedge ([2]; Rate 250 g/ha, Postemergence): 3 | Plant response rating, Nutsedge ([2]; Rate 250 g/ha, Preemergence): 0 | Plant response rating, Barnyardgrass [3, 13]: 3 | Plant response rating, Barnyardgrass [3, 14]: 4 | Plant response rating, Barnyardgrass [3, 15]: 4 | Plant response rating, Ducksalad [4, 13]: 3 | Plant response rating, Ducksalad [4, 14]: 4 | Plant response rating, Ducksalad [4, 15]: 5 | Plant response rating, Rice (rice (Oryza sativa); [13]): 3 | Plant response rating, Rice (rice (Oryza sativa); [14]): 4 | Plant response rating, Rice (rice (Oryza sativa); [15]): 5 | Plant response rating, S. Flatsedge [5, 13]: 6 | Plant response rating, S. Flatsedge [5, 14]: 8 | Plant response rating, S. Flatsedge [5, 15]: 9 | Plant response rating, Arrowleaf sida ([6]; Rate 35 g/ha): 70 | Plant response rating, Arrowleaf sida ([6]; Rate 70 g/ha): 85 | Plant response rating, Arrowleaf sida ([6]; Rate 140 g/ha): 90 | Plant response rating, Corn (corn (Zea mays); Rate 35 g/ha): 0 | Plant response rating, Corn (corn (Zea mays); Rate 70 g/ha): 0 | Plant response rating, Corn (corn (Zea mays); Rate 140 g/ha): 0 | Plant response rating, E. blacknightsh ([7]; Rate 35 g/ha): 40 | Plant response rating, E. blacknightsh ([7]; Rate 70 g/ha): 80 | Plant response rating, E. blacknightsh ([7]; Rate 140 g/ha): 85 | Plant response rating, Giant foxtail ([8]; Rate 35 g/ha): 85 | Plant response rating, Giant foxtail ([8]; Rate 70 g/ha): 100 | Plant response rating, Giant foxtail ([8]; Rate 140 g/ha): 100 | Plant response rating, I. morningglory ([9]; Rate 35 g/ha): 0 | Plant response rating, I. morningglory ([9]; Rate 70 g/ha): 0 | Plant response rating, I. morningglory ([9]; Rate 140 g/ha): 0 | Plant response rating, Purple nutsedge ([10]; Rate 35 g/ha): 0 | Plant response rating, Purple nutsedge ([10]; Rate 70 g/ha): 0 | Plant response rating, Purple nutsedge ([10]; Rate 140 g/ha): 0 | Plant response rating, Redroot pigweed ([11]; Rate 70 g/ha): 80 | Plant response rating, Redroot pigweed ([11]; Rate 140 g/ha): 100 | Plant response rating, Soybean (soybean (Glycine max); Rate 35 g/ha): 0 | Plant response rating, Soybean (soybean (Glycine max); Rate 70 g/ha): 0 | Plant response rating, Soybean (soybean (Glycine max); Rate 140 g/ha): 5 | Plant response rating, Surinam grass ([12]; Rate 35 g/ha): 0 | Plant response rating, Surinam grass ([12]; Rate 70 g/ha): 5 | Plant response rating, Surinam grass ([12]; Rate 140 g/ha): 10

Cc1cnc(-c2ccc(C(F)(F)F)cc2)nc1Cc1cccc(OC(F)(F)F)c1 [Compound 15]
Plant response rating, Giant foxtail ([1]; Rate 62 g/ha, Postemergence): 7 | Giant foxtail plant response rating ([1]; Rate 62 g/ha, Preemergence): 10 | Plant response rating, Giant foxtail ([1]; Rate 125 g/ha, Postemergence): 7 | Giant foxtail plant response rating ([1]; Rate 125 g/ha, Preemergence): 10 | Plant response rating, Giant foxtail ([1]; Rate 250 g/ha, Postemergence): 8 | Plant response rating, Giant foxtail ([1]; Rate 250 g/ha, Preemergence): 10 | Plant response rating, Nutsedge ([2]; Rate 62 g/ha, Postemergence): 0 | Nutsedge plant response rating ([2]; Rate 62 g/ha, Preemergence): 0 | Plant response rating, Nutsedge ([2]; Rate 125 g/ha, Postemergence): 2 | Nutsedge plant response rating ([2]; Rate 125 g/ha, Preemergence): 0 | Plant response rating, Nutsedge ([2]; Rate 250 g/ha, Postemergence): 2 | Plant response rating, Nutsedge ([2]; Rate 250 g/ha, Preemergence): 2 | Plant response rating, Barnyardgrass [3, 13]: 6 | Plant response rating, Barnyardgrass [3, 14]: 8 | Plant response rating, Barnyardgrass [3, 15]: 9 | Plant response rating, Ducksalad [4, 13]: 6 | Plant response rating, Ducksalad [4, 14]: 6 | Plant response rating, Ducksalad [4, 15]: 7 | Plant response rating, Rice (rice (Oryza sativa); [13]): 6 | Plant response rating, Rice (rice (Oryza sativa); [14]): 7 | Plant response rating, Rice (rice (Oryza sativa); [15]): 7 | Plant response rating, S. Flatsedge [5, 13]: 7 | Plant response rating, S. Flatsedge [5, 14]: 8 | Plant response rating, S. Flatsedge [5, 15]: 9 | Plant response rating, Arrowleaf sida ([6]; Rate 35 g/ha): 80 | Plant response rating, Arrowleaf sida ([6]; Rate 70 g/ha): 85 | Plant response rating, Arrowleaf sida ([6]; Rate 140 g/ha): 85 | Plant response rating, Corn (corn (Zea mays); Rate 35 g/ha): 0 | Plant response rating, Corn (corn (Zea mays); Rate 70 g/ha): 5 | Plant response rating, Corn (corn (Zea mays); Rate 140 g/ha): 10 | Plant response rating, E. blacknightsh ([7]; Rate 35 g/ha): 70 | Plant response rating, E. blacknightsh ([7]; Rate 70 g/ha): 95 | Plant response rating, E. blacknightsh ([7]; Rate 140 g/ha): 95 | Plant response rating, Giant foxtail ([8]; Rate 35 g/ha): 70 | Plant response rating, Giant foxtail ([8]; Rate 70 g/ha): 100 | Plant response rating, Giant foxtail ([8]; Rate 140 g/ha): 100 | Plant response rating, I. morningglory ([9]; Rate 35 g/ha): 15 | Plant response rating, I. morningglory ([9]; Rate 70 g/ha): 20 | Plant response rating, I. morningglory ([9]; Rate 140 g/ha): 65 | Plant response rating, Purple nutsedge ([10]; Rate 35 g/ha): 0 | Plant response rating, Purple nutsedge ([10]; Rate 70 g/ha): 0 | Plant response rating, Purple nutsedge ([10]; Rate 140 g/ha): 0 | Plant response rating, Redroot pigweed ([11]; Rate 35 g/ha): 60 | Plant response rating, Redroot pigweed ([11]; Rate 70 g/ha): 85 | Plant response rating, Redroot pigweed ([11]; Rate 140 g/ha): 100 | Plant response rating, Soybean (soybean (Glycine max); Rate 35 g/ha): 0 | Plant response rating, Soybean (soybean (Glycine max); Rate 70 g/ha): 10 | Plant response rating, Soybean (soybean (Glycine max); Rate 140 g/ha): 10 | Plant response rating, Surinam grass ([12]; Rate 35 g/ha): 20 | Plant response rating, Surinam grass ([12]; Rate 70 g/ha): 50 | Plant response rating, Surinam grass ([12]; Rate 140 g/ha): 80

COc1cnc(-c2ccc(C(F)(F)F)cc2)nc1Cc1cccc(C(F)(F)F)c1 [Compound 23]
Plant response rating, Giant foxtail ([1]; Rate 62 g/ha, Postemergence): 2 | Giant foxtail plant response rating ([1]; Rate 62 g/ha, Preemergence): 10 | Plant response rating, Giant foxtail ([1]; Rate 125 g/ha, Postemergence): 5 | Giant foxtail plant response rating ([1]; Rate 125 g/ha, Preemergence): 10 | Plant response rating, Giant foxtail ([1]; Rate 250 g/ha, Postemergence): 9 | Plant response rating, Giant foxtail ([1]; Rate 250 g/ha, Preemergence): 10 | Plant response rating, Nutsedge ([2]; Rate 62 g/ha, Postemergence): 0 | Plant response rating, Nutsedge ([2]; Rate 125 g/ha, Postemergence): 0 | Nutsedge plant response rating ([2]; Rate 125 g/ha, Preemergence): 0 | Plant response rating, Barnyardgrass [3, 13]: 4 | Plant response rating, Barnyardgrass [3, 14]: 5 | Plant response rating, Barnyardgrass [3, 15]: 6 | Plant response rating, Ducksalad [4, 13]: 2 | Plant response rating, Ducksalad [4, 14]: 4 | Plant response rating, Ducksalad [4, 15]: 6 | Plant response rating, Rice (rice (Oryza sativa); [13]): 3 | Plant response rating, Rice (rice (Oryza sativa); [14]): 4 | Plant response rating, Rice (rice (Oryza sativa); [15]): 5 | Plant response rating, S. Flatsedge [5, 13]: 4 | Plant response rating, S. Flatsedge [5, 14]: 8 | Plant response rating, S. Flatsedge [5, 15]: 9 | Plant response rating, Arrowleaf sida ([6]; Rate 35 g/ha): 80 | Plant response rating, Arrowleaf sida ([6]; Rate 70 g/ha): 100 | Plant response rating, Arrowleaf sida ([6]; Rate 140 g/ha): 100 | Plant response rating, Corn (corn (Zea mays); Rate 35 g/ha): 0 | Plant response rating, Corn (corn (Zea mays); Rate 70 g/ha): 0 | Plant response rating, Corn (corn (Zea mays); Rate 140 g/ha): 5 | Plant response rating, E. blacknightsh ([7]; Rate 35 g/ha): 95 | Plant response rating, E. blacknightsh ([7]; Rate 70 g/ha): 100 | Plant response rating, E. blacknightsh ([7]; Rate 140 g/ha): 100 | Plant response rating, Giant foxtail ([8]; Rate 35 g/ha): 85 | Plant response rating, Giant foxtail ([8]; Rate 70 g/ha): 100 | Plant response rating, Giant foxtail ([8]; Rate 140 g/ha): 100 | Plant response rating, I. morningglory ([9]; Rate 35 g/ha): 5 | Plant response rating, I. morningglory ([9]; Rate 140 g/ha): 40 | Plant response rating, Purple nutsedge ([10]; Rate 35 g/ha): 0 | Plant response rating, Purple nutsedge ([10]; Rate 70 g/ha): 0 | Plant response rating, Purple nutsedge ([10]; Rate 140 g/ha): 0 | Plant response rating, Redroot pigweed ([11]; Rate 35 g/ha): 100 | Plant response rating, Redroot pigweed ([11]; Rate 70 g/ha): 100 | Plant response rating, Redroot pigweed ([11]; Rate 140 g/ha): 100 | Plant response rating, Soybean (soybean (Glycine max); Rate 35 g/ha): 5 | Plant response rating, Soybean (soybean (Glycine max); Rate 70 g/ha): 5 | Plant response rating, Soybean (soybean (Glycine max); Rate 140 g/ha): 10 | Plant response rating, Surinam grass ([12]; Rate 35 g/ha): 5 | Plant response rating, Surinam grass ([12]; Rate 70 g/ha): 45 | Plant response rating, Surinam grass ([12]; Rate 140 g/ha): 60
